Measured values as given in paper PMC9122897, “SHR1032, a novel STING agonist, stimulates anti-tumor immunity and directly induces AML apoptosis” (Scientific Reports, 2022).

Tests used:
[1] = system: THP1 reporter cells carrying human STING R232, H232 and HAQ variants; test: IRF luciferase reporter assay in THP1 cells with STING variants; assay type: cell-based; settings: compared to cGAMP and ADU-S100; 24 h
Excerpt: Five haplotypes of human STING have been identified (R232, H232, HAQ, AQ, and Q alleles), which vary at amino acid positions 71, 230, 232, and 293[16]. R232, HAQ and H232 were reported to be the three major alleles. We tested the responsiveness of the human STING alleles to STING agonists in THP1 reporter cells carrying human STING R232, H232 and HAQ variants. […] To examine whether the activities of STING agonists are on-target, we treated THP1-STING-KO reporter cells with the agonists and no luciferase reporter activity was detected, confirming the cellular activity of STING agonists we observed are specific from STING.
Figure 2 SHR1032 specifically and potently activates STING signaling pathway. […] Cells were stimulated for 24 h with the indicated STING compounds and assessed for luciferase activity. […] IFNβ in media was quantified by human or mouse ELISA kits respectively. […] The amount of pTBK1, total TBK1, STING and α-tubulin was measured by western blotting.
THP1 reporter cells were treated for 24 h with a total of 100 k cells and 150 ul media in each well a 96-well plate. […] Luminescence signal was measured using Tecan infinite M1000. EC50 values were calculated using non-linear regression analysis of GraphPad Prism. Cell growth was monitored by CellTiter-Glo Luminescent Cell Viability Assay (Promega) per manufacture’s protocol. […]

THP1-STING-R232 cells = test: IFNβ ELISA; assay type: cell-based, human; settings: THP1-STING-R232, 5 h, vs ADU-S100
Procedure: Figure 2 SHR1032 specifically and potently activates STING signaling pathway. IRF luciferase reporter assays in (a) THP1-STING-R232, THP1-STING-H232, THP1-STING-HAQ, and THP1-STING-KO cells. Cells were stimulated for 24 h with the indicated STING compounds and assessed for luciferase activity. IFNβ production and activation of cGAS-STING signaling pathway in (b) human THP1-STING-R232, human PBMCs from a donor homozygous for the R232 variant, cynomolgus PBMC, and mouse RAW164.7 macrophage cells were treated with STING agonists for 5 h. IFNβ in media was quantified by human or mouse ELISA kits respectively. (c) THP1-STING-R232 cells and mouse RAW164.7 macrophage cells were stimulated with 40 µM of ADU-S100 or 10 µM of SHR1032 for the indicated time points. The amount of pTBK1, total TBK1, STING and α-tubulin was measured by western blotting.
Human and Cynomolgous PBMC’s were thawed and spun down in Lymphocyte media (ZENBIO) and resuspended in media to 1.5 x 10^6 cells/ml density. […] Human and monkey IFN-β protein concentration was measured using human IFN-β Quantikine ELISA Kits (R&D Systems) per manufacture’s protocol. Mouse IFN-β was measured using mouse IFN-β Quantikine ELISA Kits (R&D Systems) per manufacture’s protocol. Mouse TNFα, IFN-β and IL-6 in the tumor lysates and plasma was measured by Quantikine ELISA Kits (R&D Systems) per manufacture’s protocol.

MV4-11 cells = test: RNA-seq differentially expressed genes; assay type: cell-based, human; settings: MV4-11, 1 µM, 4 h
Procedure: (§1) Figure 5 Cell apoptosis induced by SHR1032 in AML cell lines is independent of type I interferon. (a–d) RNA-Seq analysis of THP1-STING-R232, THP1-STING-KO and MV4-11 AML cells treated with 1 µM of SHR1032 for 4 h. […] (d) ANNEXIN V staining analysis with flow cytometry in MV4-11, MOLM-16, THP1-STING-WT and THP1-STING-KO cells. (e) Cell viability analysis by CellTiter Glo in THP1-IRFAR2-WT or -KO cells.
(§2) RNA was extracted from cells using RNeasy Plus Mini Kit (Qiagen). Library preparation with NEBNext Ultra II with PolyA selection, sequencing with NovaSeq and data analysis was performed by Admera Health, New Jersey. The De-Seq2 (version 1.14.1) was used to do the differential analysis. Gene expression levels were quantified as Fragments Per Kilobase Million (FPKM). Gene expression with FPKM value ≥ 0.5 were selected and Log2-transformed for the Differential Gene Expression (DEGs) analysis using iDEP (http://bioinformatics.sdstate.edu/idep/). DEGs were defined by p < 0.05 within each indicated paired-comparison and then used for Gene Ontology Analysis and heatmap generation. The Gene Ontology Analysis was done using Enrichr. The heatmap was created using R package gplots (version 3.1.1), function heatmap.2.

THP1-STING-WT cells = test: RNA-seq differentially expressed genes; assay type: cell-based, human; settings: 1 µM, 4 h
Procedure: as §1, §2

CCn1nc(C)cc1C(=O)Nc1nc2cc(C(N)=O)cc(OC)c2n1CCC[C@H]1COc2cc(C(N)=O)cc3nc(NC(=O)c4cc(C)nn4CC)n1c23 [SHR1032]
potency in IRF luciferase reporter [1]: much better potency | IFNβ induction (THP1-STING-R232 cells): much higher level of IFNβ | Genes differentially expressed: Down-expressed (MV4-11 cells): 216 | Genes differentially expressed: Up-expressed (MV4-11 cells): 324 | Genes differentially expressed: Down-expressed (THP1-STING-WT cells): 73 | Genes differentially expressed: Up-expressed (THP1-STING-WT cells): 224
